# Patent US20230134843A1, “TREATMENT OF STEM CELL DEFICIENCY” (OSPEDALE SAN RAFFAELE S.R.L., priority 2020, published 2023)
# Entries after “also recorded” stand apart in the source; their conditions may differ.
# Assays:
# goblet cells = test: Goblet cell identification by PAS staining in the cornea, stem cell deficiency model; type: in vivo, mice; conditions: Fosaprepitant 1 mg/mL (FOSA 1); p<0.05
# Excerpt: Eight-week-old male mice C57BL6/N (Charles River, Calco, Italy) (WT mice, n=18) and Tac1-deficient B6.Cg-Tac1tm1Bbm/J (Jackson Laboratories, Bar Harbor, Me., USA) (TAC1-KO mice, n=18) were used in all experiments. TAC1-KO mice are homozygous null for the Tac1 gene. […] The corneal thickness and transparency as well as the corneal nerve length are similar to C57BL/6 mice [Barbariga M, Rabiolo A, Fonteyne P, Bignami F, Rama P, Ferrari G. The effect of aging on nerve morphology and substance P expression in mouse and human corneas. Investig Ophthalmol Vis Sci 2018; 59:5329-35. https://doi.org/10.1167/iovs.18-24707.]. Each animal was anesthetized with an intraperitoneal injection of tribromoethanol (250 mg/kg) and a topical anesthetic was applied to their ocular surface prior to the surgical procedure. […]
# To identify the presence of goblet cells, periodic acid Schiff (PAS) staining was performed following the same experimental protocol previously described [Ferrari G, Bignami F, Giacomini C, Franchini S, Rama P. Safety and efficacy of topical infliximab in a mouse model of ocular surface scarring. […] The number of PAS+ cells was quantified using Image J software (National Institutes of Health, Bethesda, Md., USA), and the results were expressed as PAS+ cells per section.
# mTOR pathway = test: Western blot of P70S6 and pP70S6 in corneal epithelium, disepithelization model (Example 1); type: in vivo, mice
# Protocol: Eight-week-old C57BL6/N (Charles River, Calco, Italy) (WT mice, n=8) and B6.Cg-Tac1tm1Bbm/J (Jackson Laboratories, Bar Harbor, Me., USA) (TAC1-KO mice, n=8) male mice were used in all experiments. Each animal was anesthetized with intraperitoneal injection of tribromoethanol (250 mg/kg) and a topical anesthetic was applied to their ocular surface prior to the surgical procedure. Disepithelization was performed based on the model previously described, using a blunt spatula to scrap the entire corneal epithelium from limbus to limbus. After wounding, eyes were treated with ophthalmic moxifloxacin 1 time/day for 1 week to […]. Fourteen days after disepithelization mice were euthanized using carbon dioxide inhalation and subsequent cervical dislocation. Corneas were collected for immunostaining and western blot analysis. All experimental protocols were approved by the Animal Care and Use Committee of the Istituto di Ricovero e cura a Carattere Scientifico San Raffaele Scientific Institute, in accordance with the ARVO Statement for the Use of Animals in Ophthalmic and Vision Research.
# To evaluate the pharmacological inhibition of Substance P, an additional group of mice (WT-FOSA, n=6) received Fosaprepitant 10 mg/mL (IVEMEND, Merck Sharp & Dohme Ltd., Hoddes-don, UK) dissolved in a total volume of 10 μL phosphate-buffered saline (PBS, Sigma-Aldrich, St. Louis, Mo., USA) or 10 μL of vehicle as control, topically four times a day in both eyes for 14 days. The treatments started 1 day after corneal dispepithelization.
# For Western Blot analysis, corneal epithelium was isolated after 30 minutes of EDTA treatment (Sigma-Aldrich Corp., St. Louis, Mo., USA) at 37° C. […] Bands were quantified using Image Lab™ software (Version 6.0.1, Bio-Rad Laboratories, Hercules, Calif., USA).
# The expression of p70 S6 Kinase (P70S6), phospho-p70 S6 Kinase (pP70S6), and phospho-histone 2-AX (γH2AX) was evaluated by Western Blot, as previously described in section 2.9. […] Bands were quantified using Image J software (National Institutes of Health, Bethesda, Md., USA).
smiles,measurement,setting,value
"C[C@@H](O[C@H]1OCCN(Cc2nc(=O)n(P(=O)(O)O)[nH]2)[C@H]1c1ccc(F)cc1)c1cc(C(F)(F)F)cc(C(F)(F)F)c1 [Fosaprepitant, [3-{[(2R,3S)-2-[(1R)-1-[3,5-bis(trifluoromethyl)phenyl]ethoxy]-3-(4-fluorophenyl)morpholin-4-yl]methyl}-5-oxo-2H-1,2,4-triazol-1-yl]phosphonic acid]",PAS+ cells (goblet cells) in the cornea compared to WT,goblet cells,Reduced number; also recorded: decrease
same,pP70S6 expression compared to WT (in words),"mTOR pathway; Fosaprepitant 10 mg/mL (WT-FOSA), western blot",significant decrease
same,ratio between pP70S6 and P70S6 expression (mTOR pathway activation) compared to WT,mTOR pathway; Fosaprepitant 10 mg/mL topically four times a day for 14 days (WT-FOSA),significant decrease
same,decrease in pP70S6 expression compared to WT,"mTOR pathway; Fosaprepitant 10 mg/mL topically four times a day for 14 days (WT-FOSA), p<0.05",38%
